# Assay results published in patent US7598275B2, “Nicotine in therapeutic angiogenesis and vasculogenesis” (priority 1999, dated 2009).
# B1: Del1: Del-1 protein, known to induce angiogenesis (protein, UniProt O43854 24-480, looked up)
# EGF-like repeat and discoidin …: DICDPNPCENGGICLPGLADGSFSCECPDGFTDPNCSSVVEVASDEEEPTSAGPCTPNPCHNGGTCEISEAYRGDTFIGYVCKCPRGFNGIHCQHNINECEVEPCKNGGICTDLVANYSCECPGEFMGRNCQYKCSGPLGIEGGIISNQQITASSTHRALFGLQKWYPYYARLNKKGLINAWTAAENDRWPWIQINLQRKMRVTGVITQGAKRIGSPEYIKSYKIAYSNDGKTWAMYKVKGTNEDMVFRGNIDNNTPYANSFTPPIKAQYVRLYPQVCRRHCTLRMELLGCELSGCSEPLGMKSGHIQDYQITASSIFRTLNMDMFTWEPRKARLDKQGKVNAWTSGHNDQSQWLQVDLLVPTKVTGIITQGAKDFGHVQFVGSYKLAYSNDGEHWTVYQDEKQRKDKVFQGNFDNDTHRKNVIDPPIYARHIRILPWSWYGRITLRSELLGCTEEE
# Tests used:
# C57BL/6J mice [1] = test: Disc angiogenesis system (DAS), fibrovascular growth into implanted disc; type: in vivo; conditions: for effect on nicotine-induced fibrovascular growth (systemic nicotine) / effect on nicotine-induced fibrovascular growth (local nicotine): oral supplementation: LNNA 6 mg/ml, indomethacin 20 mcg/ml; for effect on nicotine-induced fibrovascular growth (systemic nicotine): nicotine in drinking water; for effect on nicotine-induced fibrovascular growth (local nicotine): nicotine inside the DAS; for angiogenesis in comparison to vehicle: locally in disc pellet: bFGF 20 mcg, Del-1 0.2 M, nicotine 10^-6 M
# Text: To study whether nicotine induces angiogenesis in vivo, we employed the disc angiogenesis system (DAS) (Kowalski et al. (1992) Exp Mol Pathol 56(1):1-19; Fajardo et al. (1998) Lab Invest 58:718-7244).
# Preparation of the disc. The DAS consisted of a disc (11 mm in diameter and 1 mm thickness) made of a polyvinyl alcohol sponge (Kanebo PVA, RippeyCo., Santa Clara, Calif.). Both sides were covered with nitrocellulose cell-impermeable filters (Millipore filters, […] in pore diameter, Millipore, SF, Calif.) of the same diameter as the sponge disc, fixed to the sponge using Millipore glue#1 (xx70000.00, Millipore). As a result, cells (and thus vessels) could penetrate or exit only through the rim of the disc (Kowalski et al. (1992) Exp Mol Pathol 56(1):1-19; Fajardo et al. (1998) Lab Invest 58:718-7244).
# In order to study the local effect of nicotine on angiogenesis, nicotine was placed in a pellet which was added directly to the disc. Briefly, a 1.5-mm core (pellet) was cut from the disc center. Both the pellets and discs were sterilized prior to assembly in a laminar flow hood. The pellet was loaded with up to 20 mcl of the nicotine solution and subsequently air-dried. We placed in the disc pellets with either vehicle (PBS, Sigma, Chemical Co., St Louis, Mo., n=5) or nicotine (10^-6 M, Aldrich Chemical Company, Milwaukee, Wis., n=5) to study the effects of locally administered nicotine. For comparison, in some cases basic fibroblast growth factor (bFGF; 20 mcg) or Del-1 protein (0.2 M) was added to the pellet, rather than nicotine. Both bFGF and Del-1 are known to induce angiogenesis. The pellet was then coated with ethylene-vinyl acetate co-polymer (Elvax, Dupont, Chemcentral Corp., Chicago, Ill.) which would permit slow release of the nicotine from the pellet into the disc. The pellet was then re-inserted into the disc before sealing the disc with the millipore filters.
# To study the systemic effects of nicotine, in some cases the animals were administered nicotine in their drinking water (see below).
# Implantation of the disc. The mice were anesthetized with 4% chloralhydrate [intraperitoneal administration (i.p.), 0.1 cc/10 g body weight]. The flanks and posterior surface of the thorax were shaved and cleaned with saturated 70% isopropyl alcohol. A 2-cm incision was made in the skin of the flank contra-lateral to the implantation site. Blunt dissection through the subcutaneous tissue produced a channel into which the saline moistened disc was inserted. The skin was closed with 5.0 silk suture (Kowalski et al. (1992) Exp Mol Pathol 56(1):1-19; Fajardo et al. (1998) Lab Invest 58:718-7244).
# Disc removal and preparation. Two weeks after disc implantation, the mice were sacrificed with an overdose of 4% chloral hydrate (i.p.) and cervical dislocation. A careful incision was made next to the skin overlying the implanted disc, and the disc was gently removed from the implantation site. Attached tissue was carefully detached from the disc. After removing the disc, one filter was separated from the disc. Discs were then fixed in 10% formalin and embedded flat in paraffin. Subsequently, […] sections were made in a plane through the center of the disc and parallel to the disc surface.
# Quantitation of results. The disc sections were stained with H&E for light microscopy and histomorphometric measurement of radial growth, and stained with toluidine blue for quantitative determination of total area of fibrovascular growth. Using a video microscope and a computer assisted digital image analysis system (NIH Image 1.59b9), the entire area of fibrovascular growth in the toluidine blue stained disc was calculated and expressed in mm^2. As described in a previous study, total fibrovascular growth area is directly proportional to the total area of the disc occupied by blood vessels (Kowalski et al. (1992) Exp Mol Pathol 56(1):1-19; Fajardo et al. (1998) Lab Invest 58:718-7244).
# endothelial cells = test: Endothelial cell (EC) migration assay; type: cell-based
# Text: In this experiment, the effects of VEGF, FGF and nicotine in an endothelial cell (EC) migration assay were observed. The EC migration assay involves growing a confluent endothelial monolayer, and then scraping away half of the cells. The number of endothelial cells that migrate over time into the denuded region was observed. Unstimulated cells will migrate into the region. Angiogenic agents will accelerate this migration.
# In this histogram shown in FIG. 8, the number of migrating cells is expressed as a percentage of the number of endothelial cells migrating into the region under unstimulated conditions.
# C57BL/6J mice [2] = system: C57BL/6J mice
# Protocol: Murine Ischemic Hindlimb Model of Peripheral Arterial Disease (PAD). Mice were anesthetized with 4% chloral hydrate [intraperitoneal administration (i.p.), 0.1 cc/10 g body weight). The medial surface of both hindlimbs were shaved and then cleaned with betadine solution. A 1.5-cm longitudinal incision was performed, extending from the knee to the inguinal ligament. Through this incision, the superficial femoral artery was dissected free along its length. After the distal ends of both the external iliac and superficial femoral arteries were ligated with 7.0 (Ethicon), complete excision of the femoral artery was performed. An additional set of mice underwent sham operation. The incisions were then closed with discontinuous stitches of 5.0 silk suture (Ethicon). Ampicillin (1 mg/10 gm body weight) intraperitoneal injection was administered after surgical procedure.
# Tissue Preparation. Three weeks after surgery, mice were euthanized with an overdose of 4% chloral hydrate (i.p) and cervical dislocation, and the adductor and semimembranous muscles were collected for capillary density assessment. Briefly, a longitudinal incision in the medial thigh was made to expose the entire hindlimb muscle. The adductor and semimembranous muscles were removed and immediately frozen in OCT. Subsequently, sections 5 μm were taken from the mid-region of each muscle in a transverse orientation. The sections were air dried and fixed in acetone.
# Capillary Densitometry. Immunohistochemistry was performed using an alkaline phosphatase assay to identify the endothelial cells. An eosin counterstain was used to differentiate myocytes. Capillaries and myocytes were identified and counted using light microscopy (20×). For each section, four different fields were selected and the total number of capillaries and myocytes per field determined. These values were averaged to provide a determination of capillary density for each experimental limb. To ensure that value for capillary density was not overestimated due to muscle atrophy, or underestimated due to interstitial edema, capillary density was expressed as a ratio of capillaries to myocytes present in the same field.
# Daily intramuscular injections of nicotine solution or vehicle were administered (50 μl ) for a period of three weeks.
# [3] = highest dose (3200 ng/kg = 3.2 μg/kg) i.m. daily for three weeks
# [4] = VEGF 1 ng/ml, FGF, nicotine (FIG. 8)
molecule,measurement,setting,value
"NC(=NCCC[C@H](N)C(=O)O)N[N+](=O)[O-] [LNNA, L, nitro-arginine]",effect on nicotine-induced fibrovascular growth (systemic nicotine),C57BL/6J mice [1],blocked
same,effect on nicotine-induced fibrovascular growth (local nicotine),C57BL/6J mice [1],blocked the effects of nicotine
COc1ccc2c(c1)c(CC(=O)O)c(C)n2C(=O)c1ccc(Cl)cc1 [indomethacin],effect on nicotine-induced fibrovascular growth (systemic nicotine),C57BL/6J mice [1],blocked
same,effect on nicotine-induced fibrovascular growth (local nicotine),C57BL/6J mice [1],blocked the effects of nicotine
CN(C)C(=O)Oc1cccc([N+](C)(C)C)c1 [neostigmine],increase of EC migration,"endothelial cells; 10^−6 M alone, relative to unstimulated cells",over 50%
"CN1CCC[C@H]1c1cccnc1 [nicotine, S-3-(1-methyl-2-pyrrolidinyl)pyridine]",capillary density in the ischemic limb,"C57BL/6J mice [2]; 0.03 μg/kg i.m. daily for three weeks, vehicle control 0.35",0.67 capillaries/myocyte
same,angiogenic response in the ischemic limb at the highest dose,C57BL/6J mice [2]; [3],angiogenesis was not increased
same,toxicity at the highest dose (interstitial edema and myocyte necrosis),C57BL/6J mice [2]; [3],some toxicity was observed
same,angiogenic effect in non-ischemic hindlimbs,C57BL/6J mice [2]; untreated non-ischemic limb of animals given i.m. nicotine in the ischemic limb,no angiogenic effect was detected
same,"EC migration, number of migrating cells relative to unstimulated conditions",endothelial cells; [4],same degree
same,"angiogenic potency relative to growth factors tested in DAS (Del1, bFGF)",C57BL/6J mice [1]; local effects in the disc angiogenesis system,as or more potent
same,area of fibrovascular growth into the disc,"C57BL/6J mice [1]; local nicotine, 10^-6 M in pellet inside the disc, basal about 10 mm^2",about 20 mm^2
same,angiogenesis in comparison to vehicle,C57BL/6J mice [1],increased angiogenesis to the same degree
same,"angiogenesis, systemic versus local nicotine administration",C57BL/6J mice [1]; systemic nicotine (drinking water) compared with nicotine in disc,greater than local nicotine administration
same,"angiogenesis, systemic administration versus locally administered bFGF and Del-1","C57BL/6J mice [1]; systemic nicotine (drinking water), FIG. 4",much greater degree
same,area of fibrovascular growth into the disc,"C57BL/6J mice [1]; systemic nicotine, 60 mcg/ml in drinking water, disc removed two weeks after implantation, basal somewhat greater than 10 mm^2",35 mm^2
VEGF,"EC migration, number of migrating cells relative to unstimulated conditions",endothelial cells; [4],increases EC migration to the same degree as FGF or Nicotine
same,"EC migration, number of migrating cells relative to unstimulated conditions",endothelial cells; high dose VEGF 10 ng/ml,greatest response
"bFGF: basic fibroblast growth factor, known to induce angiogenesis",angiogenesis in comparison to vehicle,C57BL/6J mice [1],increased angiogenesis to the same degree
B1,angiogenesis in comparison to vehicle,C57BL/6J mice [1],increased angiogenesis to the same degree
